The source made the active and inactive calls. No rule for the calls is given here.
What follows are compounds tested against Microphthalmia-associated transcription factor (Homo sapiens) (UniProt O75030) (assay: MITF inhibitors by FRET titration, dose response, biochemical, high throughput (AID 1259375;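 also: FRET between CFP-tagged and YFP-tagged MITF protein partners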)). Conditions: FRET biochemical assay, MITF inhibition.
Chain of Microphthalmia-associated transcription factor (Homo sapiens) (O75030 whole entry, looked up): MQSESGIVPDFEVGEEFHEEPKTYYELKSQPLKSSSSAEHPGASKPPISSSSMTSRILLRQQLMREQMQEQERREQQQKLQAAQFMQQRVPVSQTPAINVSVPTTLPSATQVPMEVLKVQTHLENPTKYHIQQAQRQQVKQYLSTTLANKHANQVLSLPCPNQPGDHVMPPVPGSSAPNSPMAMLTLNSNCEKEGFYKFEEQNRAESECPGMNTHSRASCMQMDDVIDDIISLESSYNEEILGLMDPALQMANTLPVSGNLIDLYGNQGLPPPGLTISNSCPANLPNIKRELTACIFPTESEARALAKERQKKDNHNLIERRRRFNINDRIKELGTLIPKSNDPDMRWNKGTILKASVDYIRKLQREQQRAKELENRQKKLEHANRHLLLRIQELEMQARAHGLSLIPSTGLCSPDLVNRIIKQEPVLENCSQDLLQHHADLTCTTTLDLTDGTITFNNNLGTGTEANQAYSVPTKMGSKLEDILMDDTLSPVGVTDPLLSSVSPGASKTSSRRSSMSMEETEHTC

Compound | IC50
CC[C@H](C)[C@@H]1NC(=O)[C@H]2CN(C(=O)NC3CCCCC3)CCN2C1=O | > 6.48 µM (inactive)
O=C(Nc1cc(S(=O)(=O)O)cc2cc(S(=O)(=O)O)cc(O)c12)c1ccccc1 | > 6.48 µM (inactive)
Cc1noc(C2CN(C(=O)c3ccc(-n4cccc4)cc3)C2)n1 | > 6.48 µM (inactive)
CC(=O)NC1=NC(=O)/C(=C\c2ccc(Br)o2)S1 | > 6.48 µM (inactive)
CNC(=O)Nc1ccc2nc(-c3ccco3)c(-c3ccco3)nc2c1 | > 6.48 µM (inactive)
CN(C)C1C(=O)C(C(N)=O)=C(O)C2(O)C(=O)C3=C(O)c4c(O)cccc4C(C)(O)C3CC12 (stereo unspecified) | > 6.48 µM (inactive)
Nc1cccc(N2C(=O)c3cc(S(=O)O)cc4c(N)c(S(=O)O)cc(c34)C2=O)c1 | > 6.48 µM (inactive)
O=C(Nc1ccc(Oc2ccccc2)cc1)c1ccnc(-c2cccs2)c1 | > 6.71 µM (inactive)
O=C(CCc1ccco1)Nc1ccc(-c2cn3c4c(nnc3n2)CCCC4)cc1 | > 6.48 µM (inactive)
O=C(/C=C/c1ccco1)Nc1c[nH]c(=O)[nH]c1=O | > 6.48 µM (inactive)
N#C/C(=C\c1nn(-c2ccccc2)c(N)c1C#N)c1ccco1 | > 6.48 µM (inactive)
CN(C)/C=C/C=C/C(=O)c1cccc(C(=O)/C=C/C=C/N(C)C)c1O | > 6.48 µM (inactive)
CN(Cc1ccco1)S(=O)(=O)c1ccc2[nH]cc(C(=O)O)c(=O)c2c1 | > 6.48 µM (inactive)
O=C(NCCc1ccc(O)cc1)c1cccc(-c2cccs2)c1 | > 6.26 µM (inactive)
NC(=O)n1c(CCC(=O)O)nc2sc3c(c2c1=O)CCC3 | > 6.75 µM (inactive)
COC(=O)CCc1cc2c(C)cc(=O)oc2cc1OCc1ccc(C)cc1 | > 6.48 µM (inactive)
O=C(O)c1coc(CNC(=O)c2cocc2C(=O)O)c1 | > 6.48 µM (inactive)
CC(O)(CNCCN1CCOCC1)COc1ccc(Cl)cc1 (stereo unspecified) | > 6.31 µM (inactive)
Cc1ccc(N2C(=O)C3C(C2=O)C2(CO)C=CC3(C)O2)cc1[N+](=O)[O-] (stereo unspecified) | > 6.48 µM (inactive)
COCCCNC(=O)/C(C#N)=C/c1ccc(-c2ccc(Cl)c(C(=O)O)c2)o1 | > 6.48 µM (inactive)
O=Cc1cccn1-c1ccc(C(=O)O)cc1 | > 6.48 µM (inactive)
CN1CCN(CCNC(=O)c2cccc(CN(C(=O)c3nc4ccc(-c5cn[nH]c5)cc4s3)C3CC3)c2)CC1 | > 6.48 µM (inactive)
O=C(C1CCC(Nc2nccc(-c3ccc4nc(C5CC5)[nH]c(=O)c4c3)n2)CC1)N1CCCC1 (stereo unspecified) | > 6.48 µM (inactive)

Compound | IC50
CC1=C/C(=N\N=C2\NC(=O)C(CC(=O)Nc3ccc(C(=O)O)cc3)S2)CC(C)(C)C1 (stereo unspecified) | > 6.48 µM (inactive)
O=C1N[C@@H](Cc2c[nH]c3ccccc23)C(=O)N2CCN(C(=O)NC3CCCCC3)C[C@H]12 | > 6.48 µM (inactive)
O=c1[nH]c(-c2ccco2)nc2sc3c(c12)CCCC3 | > 9.74 µM (inactive)
O=C(CCCCC1SCC2NC(=O)NC21)NC1(c2ccc3c(c2)OCO3)CCCC1 (stereo unspecified) | > 6.48 µM (inactive)
CCOC(=O)C1C2NC(=S)N(CC)C1(C)Oc1ccc(Cl)cc12 (stereo unspecified) | > 8.6 µM (inactive)
O=C(Cn1ncn2cccc2c1=O)N1CCc2ccccc2C1 | > 6.48 µM (inactive)
COc1cc2cc3c(N)c(C(=O)Nc4sc(C)c(C)c4C#N)sc3nc2cc1OC | > 6.48 µM (inactive)
Cc1ccc(S(=O)(=O)C(CNC(=O)c2ccco2)c2cccs2)cc1 (stereo unspecified) | > 6.56 µM (inactive)
COc1cccc(COC(=O)Nc2ccc(-c3cn[nH]c3)cc2N(C)CCN(C)C)c1 | > 6.48 µM (inactive)
O=S(=O)(O)c1ccc(N/N=C2\CCc3ccccc32)cc1 | > 6.48 µM (inactive)
COc1ccc(CCNC(=O)CN2CCN(Cc3nc(-c4ccco4)cs3)CC2)cc1OC | > 6.48 µM (inactive)
Cc1nc(C)n(-c2ccc(Nc3cc(-n4cc(N(c5cccnc5)c5cccnc5)cn4)ccn3)cc2)n1 | > 6.48 µM (inactive)
CC(=O)Nc1ccc(N2C(=O)c3ccccc3C2(O)Cc2ccccc2)cc1 (stereo unspecified) | > 6.48 µM (inactive)
O=C1Nc2ccc(S(=O)(=O)NCc3ccccc3)cc2C1=O | > 6.08 µM (inactive)
CCC[C@@H]1NC(=O)[C@H]2CN(C(=O)NC3CCCCC3)CCN2C1=O | > 6.48 µM (inactive)
COc1ccc(/C=C2\N=C(c3ccc4c(c3)OCO4)OC2=O)cc1Cl | > 5.41 µM (inactive)
CN(N=O)c1cc(O)ccc1O | > 6.48 µM (inactive)
COC(=O)c1ccc(=O)c2nc3/c(=C/O)c(O)cc(=O)c3[nH]c12 | 2.02 µM
Cc1cc(C)n(C(=O)/C=C/c2ccco2)n1 | > 6.48 µM (inactive)
O=C1N[C@H](Cc2ccc(O)cc2)C(=O)N2CCN(C(=O)NCc3ccccc3)C[C@H]12 | > 6.48 µM (inactive)
Cc1n[nH]c(=O)nc1NNc1ccc(C(=O)O)cc1 | > 6.48 µM (inactive)
O=C(COc1ccccc1C(=O)OC1CCCC1=O)Nc1cccc(C(F)(F)F)c1 (stereo unspecified) | > 6.77 µM (inactive)
CCN(CC)C(=S)NC(=O)/C=C/c1ccco1 | > 6.48 µM (inactive)

Compound | IC50
C[C@H]1NC(=O)[C@H]2CN(C(=O)NCc3ccccc3)CCN2C1=O | > 6.48 µM (inactive)
CC[C@@H]1NC(=O)[C@H]2CN(C(=O)NC3CCCCC3)CCN2C1=O | > 6.48 µM (inactive)
CCc1ccc(CN2CCN(Cc3cc(OC)c(O)c(OC)c3)CC2)cc1 | > 5.79 µM (inactive)
O=C(NCc1ccccc1)N1CCN2C(=O)[C@@H]3CCCN3C(=O)[C@H]2C1 | > 6.48 µM (inactive)
CCC(C)c1ccccc1OCCNCCN(C)C (stereo unspecified) | > 6.48 µM (inactive)
O=C(NC1CCN(Cc2ccccc2)CC1)c1ccc2nc(-c3cccs3)sc2c1 | > 6.38 µM (inactive)
Nc1cc(Br)cnc1N | > 8.62 µM (inactive)
COc1ccc(CN2CCN(Cc3cccc(Cl)c3)CC2)cc1Br | > 6.11 µM (inactive)
COC(=O)CN(CCN(CC(=O)O)CC(=O)OC)CC(=O)O | > 5.37 µM (inactive)
O=c1cc(/C=C/c2ccc(O)cc2)nc2nn[nH]n12 | > 6.48 µM (inactive)
O=c1c2ccccc2nc(-c2ccccc2)n1-c1ccccc1O | > 6.5 µM (inactive)
Cc1ccc(COc2ccc(/C=N/N=C3\NC(=O)C(CC(=O)O)S3)cc2)cc1 (stereo unspecified) | > 6.48 µM (inactive)
CCc1ccc(CN2CCN(C(C)C)CC2)cc1 | > 6.89 µM (inactive)
CCN1CCN(CCOCCOc2ccc(F)cc2)CC1 | > 6.48 µM (inactive)
c1coc(CNc2ccc3ncc(-c4ccco4)n3n2)c1 | > 6.48 µM (inactive)
O=C(O)c1cc(NN=C2CCCC2)ccc1Cl | > 7.18 µM (inactive)
CN(C)CCS(=O)c1cc(-c2cn[nH]c2)ccc1NC(=O)[C@H]1Cc2cc(F)ccc2CN1 (stereo partly specified) | > 6.48 µM (inactive)
O=C(Nc1ccc(-c2ccncc2)c(C(F)(F)F)c1)C1COc2ccccc2O1 (stereo unspecified) | > 6.48 µM (inactive)
O=C(NC1CCCCC1)N1CCN2C(=O)[C@@H]3CSCN3C(=O)[C@H]2C1 | > 6.48 µM (inactive)
COc1cc(N2CCOCC2)ccc1Nc1cc(Nc2ccccc2-n2cccn2)c(C(F)(F)F)cn1 | > 6.48 µM (inactive)
O=C(O)c1ccc(CS(=O)(=O)c2ccccc2)o1 | > 6.48 µM (inactive)
O=c1c(O)c(-c2ccc(O)cc2O)oc2cc(O)cc(O)c12 | > 6.48 µM (inactive)
CN(C)CCNc1nc(C2COc3ccccc3O2)nc2ccc(-c3cn[nH]c3)cc12 (stereo unspecified) | > 6.48 µM (inactive)

Compound | IC50
O=C(OCN1C(=O)c2ccccc2C1=O)c1cc2c(s1)CCC2 | > 7.13 µM (inactive)
Cc1cccc(N2CCN(C(=O)/C=C\C(=O)O)CC2)c1C | > 6.48 µM (inactive)
C[C@@H](O)[C@@H]1NC(=O)[C@H]2CN(C(=O)NCc3ccccc3)CCN2C1=O | > 6.48 µM (inactive)
COc1cc(/C=N/N=C2\NC(=O)C(CC(=O)O)S2)ccc1OCc1ccc(C)cc1 (stereo unspecified) | > 6.48 µM (inactive)
NC(=O)c1cccc(-c2cccs2)c1 | > 6.74 µM (inactive)
C=CCNCCOCCOc1ccc(OCC)cc1 | > 6.48 µM (inactive)
Nc1cc2c(S(=O)(=O)O)cc(S(=O)(=O)O)cc2cc1S(=O)(=O)O | > 6.48 µM (inactive)
O=C1N[C@@H](CC2CCCCC2)C(=O)N2CCN(C(=O)NCc3ccccc3)C[C@H]12 | > 6.48 µM (inactive)
O=C(NCCO)c1cccc(-c2cccs2)c1 | > 8.06 µM (inactive)
CCOC(=O)N1CCC(NC(=O)CCc2nc(C3=CCN(C)CC3)no2)CC1 | > 6.48 µM (inactive)
CCCCOc1ccc(C(=O)N/C(=C/c2ccco2)C(=O)O)cc1 | inactive
Cc1ccc(C)n1C(CC(=O)O)c1ccsc1 (stereo unspecified) | > 6.76 µM (inactive)
CC(=O)NS(=O)(=O)c1ccc(NC(=O)c2ccc([N+](=O)[O-])o2)cc1 | > 6.61 µM (inactive)
O=C(c1ccc(=O)oc1)N1CCc2ccccc21 | > 7.53 µM (inactive)
COc1cc(CN2CCN(C3CCCC3)CC2)cc(OC)c1OC | > 6.48 µM (inactive)
C=C1C(C(=O)NCc2ccco2)C1C(=O)NCc1ccco1 (stereo unspecified) | > 7.72 µM (inactive)
N/C(=N\[N+](=O)[O-])N/N=C\c1ccc(-c2ccc(O)c(C(=O)O)c2)o1 | 4.95 µM
COc1ccc2c(c1)CC(C(=O)Nc1ccc(-c3cn[nH]c3)cc1C(=O)N(C)OC)CO2 (stereo unspecified) | > 6.48 µM (inactive)
O=C(O)c1c2c(nc3ccc(S(=O)(=O)N4CCC(C(=O)O)CC4)cc13)CCC2 | > 6.48 µM (inactive)
Cc1[nH][nH]c(=O)c1C(c1ccc([N+](=O)[O-])o1)c1c(C)[nH][nH]c1=O | > 6.48 µM (inactive)
O=C(O)c1cc2ncc(-c3n[nH]c(-c4cnc5cc(C(=O)O)nn5c4)c3[N+](=O)[O-])cn2n1 | > 6.48 µM (inactive)
COc1cc(N2CCOCC2)ccc1Nc1cc(NC(C)(C)c2ccccc2)c(C(F)(F)F)cn1 | > 6.48 µM (inactive)

— PubChem BioAssay AID1259375 (The Scripps Research Institute Molecular Screening Center, 2018)
